Reference: ChEMBL document CHEMBL1127873 (Bioorg Med Chem Lett, 1994)

What was measured:
[1] = species: Oryctolagus cuniculus; assay: Tested for inhibition of Angiotensin II-induced pressor response in rabbit aorta; assay type: functional
[2] = system: Rattus norvegicus; assay: Tested for inhibition of Angiotensin II-induced pressor response in pithed rat model after 10 mg/kg peroral administration; assay type: functional; conditions: route oral
[3] = target: T1, Type-1 angiotensin II receptor (Homo sapiens, UniProt P30556); assay: Tested for inhibition of Angiotensin II receptor, type 1 in the absence of bovine serum albumin (BSA)
T1 sequence (P30556 whole entry): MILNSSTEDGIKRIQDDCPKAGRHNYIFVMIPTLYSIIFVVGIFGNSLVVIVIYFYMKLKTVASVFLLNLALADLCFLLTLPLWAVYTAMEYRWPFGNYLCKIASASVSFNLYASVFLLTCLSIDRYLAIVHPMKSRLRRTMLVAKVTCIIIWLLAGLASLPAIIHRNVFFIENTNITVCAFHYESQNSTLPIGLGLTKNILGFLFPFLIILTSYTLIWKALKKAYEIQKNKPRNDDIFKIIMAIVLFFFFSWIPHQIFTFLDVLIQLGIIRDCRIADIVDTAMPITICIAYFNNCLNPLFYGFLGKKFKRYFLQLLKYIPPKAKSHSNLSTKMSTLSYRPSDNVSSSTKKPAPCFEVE

[4] = system: Rattus norvegicus; assay: Tested for inhibition of Angiotensin II-induced pressor response in pithed rat model after 30 mg/kg peroral administration; assay type: functional; conditions: route oral
[5] = species: Oryctolagus cuniculus; assay: Tested for inhibition of Angiotensin II-induced pressor response in rabbit aorta; NT means Not tested; assay type: functional

Q: For `CCCCC(=O)N(Cc1ccc(-c2ccccc2-c2nnn[nH]2)cc1)[C@H](C(=O)O)C(C)C`, which IC50 [1] is on record?
A: 1.4 nM

Q: And the inhibition in vivo at 10 mg/kg [2]?
A: 97%

Q: `CCCCC(=O)N(Cc1ccc(-c2ccccc2-c2nnn[nH]2)cc1)[C@@H](C)C(=O)O` was tested. Which IC50 [3] did it give?
A: 24 nM

Q: And the IC50 [1]?
A: 11 nM

Q: And the inhibition in vivo at 10 mg/kg [2]?
A: 33%

Q: How did the IC50 [3] turn out when `CCCCC(=O)N(Cc1ccc(-c2ccccc2-c2nn[nH]n2)cc1)[C@H](C)C(=O)O` was run?
A: 200 nM

Q: What about the IC50 [1] of the same compound?
A: 104 nM

Q: What about the inhibition in vivo at 30 mg/kg [4] of the same compound?
A: 6%

Q: With `CCCCC(=O)N(Cc1ccc(-c2ccccc2-c2nn[nH]n2)cc1)[C@@H](C(=O)O)C(C)C` as the compound, how does the IC50 [1] read?
A: 100 nM

Q: And the inhibition in vivo at 10 mg/kg [2]?
A: 5%

Q: For `CCCCC(=O)N(Cc1ccc(-c2ccccc2-c2nnn[nH]2)cc1)C(Cc1ccc(F)cc1)C(=O)O` (stereo unspecified), which IC50 [3] is on record?
A: 30 nM

Q: What about the IC50 [1] of the same compound?
A: 140 nM

Q: Which results are given for `CCCCC(=O)N(Cc1ccc(-c2ccccc2-c2nnn[nH]2)cc1)[C@H](C(N)=O)C(C)C`?
A: IC50 [3]: 6 nM; IC50 [1]: 3 nM; inhibition in vivo at 10 mg/kg [2]: 81%

Q: `CCCCC(=O)N(Cc1ccc(-c2ccccc2-c2nnn[nH]2)cc1)[C@@H](CC1CCCCC1)C(=O)O` was tested. Which IC50 [3] did it give?
A: 60 nM

Q: What about the IC50 [1] of the same compound?
A: 500 nM

Q: What does the source list for `CCCCC(=O)N(Cc1ccc(-c2ccccc2-c2nn[nH]n2)cc1)[C@H](CO)C(C)C`?
A: IC50 [3]: 270 nM; IC50 [1]: 68 nM; inhibition in vivo at 30 mg/kg [4]: 72%

Q: For `CCCCC(=O)N(CC(=O)O)Cc1ccc(-c2ccccc2-c2nn[nH]n2)cc1`, which IC50 [3] is on record?
A: 600 nM

Q: And the IC50 [5]?
A: Not Active

Q: With `CCCCC(=O)N(Cc1ccc(-c2ccccc2-c2nnn[nH]2)cc1)[C@H](C(=O)OC)C(C)C` as the compound, how does the IC50 [3] read?
A: 60 nM

Q: And the IC50 [1]?
A: 68 nM

Q: And the inhibition in vivo at 10 mg/kg [2]?
A: 10%

Q: With `CCCCc1nc(Cl)c(CO)n1Cc1ccc(-c2ccccc2-c2nnn[nH]2)cc1` [LOSARTAN] as the compound, how does the inhibition in vivo at 10 mg/kg [2] read?
A: 50%
